According to patent US20250011318A1 (ARCUS BIOSCIENCES, INC., priority 2023, published 2025):

Columns and labels:
Cbl-b = target: T1, Cbl-b (Homo sapiens, UniProt Q13191); experiment: Cbl-b probe displacement HTRF binding assay; settings: 0.4 nM biotinylated Cbl-b, 150 nM BODIPY probe
T1 construct: biotin (biotinylated)
Description: The affinity with which compounds of the present disclosure bind to Cbl-b was assessed using probe displacement homologous time resolved fluorescence (HTRF) assays. The assays used a BODIPY™ conjugated probe (Example 54 from WO 2020264398) and biotinylated Cbl-b. The assays were performed in assay buffer consisting of 20 mM Hepes, 150 mM NaCl, 0.01% Triton X-100, 0.5 mM TCEP, 0.01% BSA. On the day of the assay, a 20 point, 1:2 master serial dilution of each compound was prepared in DMSO to span a final concentration range of 10 μM to 0 nM. Two hundred nanoliters of diluted compound was added to each well of a 384-well plate. Fifteen microliters of biotinylated—Cbl-b resuspended in assay buffer were added to each well and the plate incubated for 60 minutes at room temperature prior to addition of 5 μL of BODIPY™ probe in assay buffer. Final assay conditions included 0.4 nM of Cbl-b and 150 nM of BODIPY™ probe. After a further 15 minutes of incubation at room temperature, 5 μl of Streptavidin-Terbium cryptate reagent at 5-fold final concentration was added to each well of the 384-well plate. Binding of a probe to Cbl-b results in an increase of HTRF signal. HTRF signal was measured by Envision plate reader, while competition of a compound of the present disclosure with probe results in a decrease of signal. Percentage maximum activity in each test well was calculated based on DMSO (maximum activity, 0% displacement) and no protein control wells (baseline activity, 100% displacement). Binding affinity was determined from a dose response curve fitted using a standard four parameter fit equation. See Table 3 for data for compounds (Cbl-b Binding (IC50)).

Jurkat cells = experiment: IL-2 secretion assay in CD3/CD28-activated Jurkat cells (AlphaLISA); format: cell-based, human; settings: Homo sapiens, CD3/CD28 T Cell Activator, 24 h, IL-2 AlphaLISA
Description: Certain compounds were also evaluated in an IL-2 secretion assay. On the day of the assay, a 16 point, 1:2 master serial dilution of each compound was prepared in Opti-MEM to span a final concentration range of 10 μM to 300 pM. Assays were setup in CORNING® tissue culture-treated 384-well microplates containing 60 nL of each dilution. Jurkat cells grown in RPMI-1640 supplemented with 10% FBS, 1% Glutamax, and 1% Pen/Strep were collected, resuspended in Opti-MEM. 50,000 cells/well and added to the compound plates. After a short spin (1200 rpm for 1 min), the plates were incubated at 37° C. for 1 hour. The cells were activated by adding 15 μL of IMUNOCULT™ Human CD3/CD28 T Cell Activator (STEMCELL Technologies) diluted in Opti-MEM. After 24 h of incubation at 37° C., aliquots of culture supernatants were transferred to OptiPlate-384 (PerkinElmer) microplates. The level of IL-2 secretion in the supernatants was then determined using the IL-2 (human) AlphaLISA Detection Kit (PerkinElmer) according to the manufacturer's recommendations. The AlphaLISA signal was measured using an EnVision plate reader (PerkinElmer). EC50 values were determined by fitting the data to a standard 4-parameter logistic equation. See Table 3 for data for select compounds (IL-2 Secretion (EC50)).

T1 sequence (Q13191 whole entry, species assumed): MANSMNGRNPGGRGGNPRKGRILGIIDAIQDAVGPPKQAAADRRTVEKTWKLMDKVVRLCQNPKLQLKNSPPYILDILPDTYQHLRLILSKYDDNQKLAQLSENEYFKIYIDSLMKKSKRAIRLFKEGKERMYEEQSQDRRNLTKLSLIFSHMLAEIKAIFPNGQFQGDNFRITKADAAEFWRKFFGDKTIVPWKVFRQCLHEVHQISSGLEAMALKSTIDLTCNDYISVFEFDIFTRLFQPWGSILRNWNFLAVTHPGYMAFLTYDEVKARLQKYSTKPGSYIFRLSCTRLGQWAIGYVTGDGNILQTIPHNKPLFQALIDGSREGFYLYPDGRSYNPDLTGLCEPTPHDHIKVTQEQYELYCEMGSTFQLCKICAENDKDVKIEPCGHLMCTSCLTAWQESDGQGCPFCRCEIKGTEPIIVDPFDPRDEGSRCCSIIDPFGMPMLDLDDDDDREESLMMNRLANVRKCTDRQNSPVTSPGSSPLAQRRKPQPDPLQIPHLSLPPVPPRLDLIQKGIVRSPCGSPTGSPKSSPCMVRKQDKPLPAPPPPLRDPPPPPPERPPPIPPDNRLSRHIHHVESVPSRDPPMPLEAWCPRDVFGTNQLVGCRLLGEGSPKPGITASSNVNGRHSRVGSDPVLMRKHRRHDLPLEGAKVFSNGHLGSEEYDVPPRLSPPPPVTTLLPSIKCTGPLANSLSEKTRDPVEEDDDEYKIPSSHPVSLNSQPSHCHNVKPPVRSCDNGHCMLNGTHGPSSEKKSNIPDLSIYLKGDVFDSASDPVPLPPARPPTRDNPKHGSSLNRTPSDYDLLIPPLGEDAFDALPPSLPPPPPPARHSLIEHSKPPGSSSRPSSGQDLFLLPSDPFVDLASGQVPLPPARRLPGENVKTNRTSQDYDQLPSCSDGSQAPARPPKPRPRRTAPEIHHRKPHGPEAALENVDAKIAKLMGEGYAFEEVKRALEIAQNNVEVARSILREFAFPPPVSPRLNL

IC50 (Cbl-b) [nM] | EC50 (Jurkat cells) [nM] | SMILES
< 100 | 1000 to 5000 | Cc1c[nH]nc1-c1cc(C#N)ccc1-c1cc(C2CC2)nc(-n2cc(C3CC3)c3cc(CN4C[C@@H]5C[C@H]4CN5)[nH]c3c2=O)c1 [Example 18, 4-[2-cyclopropyl-6-[4-cyclopropyl-2-[[(1S,4S)-2,5-diazabicyclo[2.2.1]-heptan-2-yl]methyl]-7-oxo-1H-pyrrolo[2,3-c]pyridin-6-yl]pyridin-4-yl]-3-(4-methyl-1H-pyrazol-3-yl)benzonitrile]
< 100 | < 100 | Cc1c[nH]nc1-c1cc(C#N)ccc1-c1cc(C2CC2)nc(-n2cc(C3CC3)c3cc(CN4CCC[C@H](C)C4)[nH]c3c2=O)c1 [Example 19, 4-[2-cyclopropyl-6-[4-cyclopropyl-2-[[(3S)-3-methylpiperidin-1-yl]methyl]-7-oxo-1H-pyrrolo[2,3-c]pyridin-6-yl]pyridin-4-yl]-3-(4-methyl-1H-pyrazol-3-yl)benzonitrile]
< 100 | 100 to 1000 | Cc1c[nH]nc1-c1cc(C#N)ccc1-c1cc(C2CC2)nc(-n2cc(C3CC3)c3cc(CNCC4(O)CCC4)[nH]c3c2=O)c1 [Example 20, 4-[2-cyclopropyl-6-[4-cyclopropyl-2-[[(1-hydroxycyclobutyl)methylamino]-methyl]-7-oxo-1H-pyrrolo[2,3-c]pyridin-6-yl]pyridin-4-yl]-3-(4-methyl-1H-pyrazol-3-yl)benzonitrile]
< 100 | 100 to 1000 | Cc1c[nH]nc1-c1cc(F)ccc1-c1cccc(-n2cc(C3CC3)c3cc(CN4CCC[C@H](C)C4)[nH]c3c2=O)c1 [Example 21, 4-cyclopropyl-6-[3-[4-fluoro-2-(4-methyl-1H-pyrazol-3-yl)phenyl]phenyl]-2-[[(3S)-3-methylpiperidin-1-yl]methyl]-1H-pyrrolo[2,3-c]pyridin-7-one]
100 to 1000 | 1000 to 5000 | C[C@H]1CCCN(Cc2cc3c(C4CC4)cn(-c4cc(-c5ccc(F)cc5-c5cncn5C)cc(C5CC5)n4)c(=O)c3[nH]2)C1 [Example 24, 2-{[(S)-3-Methyl-1-piperidyl]methyl}-4-cyclopropyl-6-{6-cyclopropyl-4-[4-fluoro-2-(1-methyl-5-imidazolyl)phenyl]-2-pyridyl}-1,6-dihydro-1,6-diaza-7-indenone]
< 100 | < 100 | C[C@H]1CCCN(Cc2cc3c(C4CC4)cn(-c4cc(-c5c(-c6nncn6C)cnn5C)cc(Cl)n4)c(=O)c3[nH]2)C1 [Example 25, 2-{[(S)-3-Methyl-1-piperidyl]methyl}-6-{6-chloro-4-[1-methyl-4-(4-methyl-4H-1,2,4-triazol-3-yl)-5-pyrazolyl]-2-pyridyl}-4-cyclopropyl-1,6-dihydro-1,6-diaza-7-indenone]
100 to 1000 | > 5000 | Cn1cnnc1-c1cc(F)ccc1-c1cc(C2CC2)nc(-n2cc(C#N)c3c(C#N)n[nH]c3c2=O)c1 [Example 27, 6-{6-cyclopropyl-4-[4-fluoro-2-(4-methyl-4H-1,2,4-triazol-3-yl)phenyl]-2-pyridyl}-7-oxo-1,6-dihydro-1,2,6-triaza-3,4-indenedicarbonitrile]
< 100 | < 100 | COCCNCc1cc2ncn(-c3cc(-c4ccc(F)cc4-c4nncn4C)cc(C4CC4)n3)c(=O)c2[nH]1 [Example 28, 3-[6-cyclopropyl-4-[4-fluoro-2-(4-methyl-1,2,4-triazol-3-yl)phenyl]pyridin-2-yl]-6-[(2-methoxyethylamino)methyl]-5H-pyrrolo[3,2-d]pyrimidin-4-one]
< 100 | < 100 | Cn1cnnc1-c1cc(F)ccc1-c1cc(C2CC2)nc(-n2cnc3cc(CNC4(C)CCC4)[nH]c3c2=O)c1 [Example 29, 3-[6-cyclopropyl-4-[4-fluoro-2-(4-methyl-1,2,4-triazol-3-yl)phenyl]pyridin-2-yl]-6-[[(1-methylcyclobutyl)amino]methyl]-5H-pyrrolo[3,2-d]pyrimidin-4-one]
< 100 | 100 to 1000 | Cn1cnnc1-c1cc(F)ccc1-c1cc(C2CC2)nc(-n2cnc3cc(CNCCOC(F)(F)F)[nH]c3c2=O)c1 [Example 30, 6-{6-cyclopropyl-4-[4-fluoro-2-(4-methyl-4H-1,2,4-triazol-3-yl)phenyl]-2-pyridyl}-2-[(2-trifluoromethoxyethylamino)methyl]-1,6-dihydro-1,4,6-triaza-7-indenone]
< 100 | < 100 | CCOCCNCc1cc2ncn(-c3cc(-c4ccc(F)cc4-c4nncn4C)cc(C4CC4)n3)c(=O)c2[nH]1 [Example 31, 6-{6-cyclopropyl-4-[4-fluoro-2-(4-methyl-4H-1,2,4-triazol-3-yl)phenyl]-2-pyridyl}-2-[(2-ethoxyethylamino)methyl]-1,6-dihydro-1,4,6-triaza-7-indenone]
< 100 | 100 to 1000 | COC1CN(Cc2cc3ncn(-c4cc(-c5ccc(F)cc5-c5nncn5C)cc(C5CC5)n4)c(=O)c3[nH]2)C1 [Example 32, 6-{6-cyclopropyl-4-[4-fluoro-2-(4-methyl-4H-1,2,4-triazol-3-yl)phenyl]-2-pyridyl}-2-[(3-methoxy-1-azetidinyl)methyl]-1,6-dihydro-1,4,6-triaza-7-indenone]
< 100 | 100 to 1000 | Cn1cnnc1-c1cc(F)ccc1-c1cc(C2CC2)nc(-n2cnc3cc(CNCC(F)(F)F)[nH]c3c2=O)c1 [Example 33, 6-{6-cyclopropyl-4-[4-fluoro-2-(4-methyl-4H-1,2,4-triazol-3-yl)phenyl]-2-pyridyl}-2-[(2,2,2-trifluoroethylamino)methyl]-1,6-dihydro-1,4,6-triaza-7-indenone]
< 100 | < 100 | COCCN(C)Cc1cc2ncn(-c3cc(-c4ccc(F)cc4-c4nncn4C)cc(C4CC4)n3)c(=O)c2[nH]1 [Example 34, 3-[6-cyclopropyl-4-[4-fluoro-2-(4-methyl-1,2,4-triazol-3-yl)phenyl]pyridin-2-yl]-6-[[2-methoxyethyl(methyl)amino]methyl]-5H-pyrrolo[3,2-d]pyrimidin-4-one]
< 100 | 100 to 1000 | COCCN(Cc1cc2ncn(-c3cc(-c4ccc(F)cc4-c4nncn4C)cc(C4CC4)n3)c(=O)c2[nH]1)CC(F)(F)F [Example 35, 6-{6-cyclopropyl-4-[4-fluoro-2-(4-methyl-4H-1,2,4-triazol-3-yl)phenyl]-2-pyridyl}-2-{[(2-methoxyethyl)(2,2,2-trifluoroethyl)amino]methyl}-1,6-dihydro-1,4,6-triaza-7-indenone]
< 100 | 100 to 1000 | COCCNC(c1cc2ncn(-c3cc(-c4ccc(F)cc4-c4nncn4C)cc(C4CC4)n3)c(=O)c2[nH]1)C(F)(F)F (centres unmarked) [Example 36, 6-{6-cyclopropyl-4-[4-fluoro-2-(4-methyl-4H-1,2,4-triazol-3-yl)phenyl]-2-pyridyl}-2-[2,2,2-trifluoro-1-(2-methoxyethylamino)ethyl]-1,6-dihydro-1,4,6-triaza-7-indenone]

SMILES | IC50 (Cbl-b) [nM] | EC50 (Jurkat cells) [nM]
Cc1c[nH]nc1-c1cc(C#N)ccc1-c1cc(C2CC2)nc(-n2cnc3cc(CN4CCC[C@H](C)C4)[nH]c3c2=O)c1 [Example 22, 4-[2-cyclopropyl-6-[6-[[(3S)-3-methylpiperidin-1-yl]methyl]-4-oxo-5H-pyrrolo[3,2-d]pyrimidin-3-yl]pyridin-4-yl]-3-(4-methyl-1H-pyrazol-3-yl)benzonitrile] | < 100 | < 100
C[C@H]1CCCN(Cc2cc3c(C4CC4)cn(-c4cc(-c5ccc(F)cc5-c5cncn5C)cc(Cl)n4)c(=O)c3[nH]2)C1 [Example 23, 2-{[(S)-3-methyl-1-piperidyl]methyl}-6-{6-chloro-4-[4-fluoro-2-(1-methyl-5-imidazolyl)phenyl]-2-pyridyl}-4-cyclopropyl-1,6-dihydro-1,6-diaza-7-indenone] | 1000 to 5000 | > 5000
Cn1cnnc1-c1cc(F)ccc1-c1cc(C2CC2)nc(-n2cc(C(F)(F)F)c3c(C#N)n[nH]c3c2=O)c1 [Example 26, 6-{6-cyclopropyl-4-[4-fluoro-2-(4-methyl-4H-1,2,4-triazol-3-yl)phenyl]-2-pyridyl}-7-oxo-4-(trifluoromethyl)-1,6-dihydro-1,2,6-triaza-3-indenecarbonitrile] | < 100 | 1000 to 5000
